According to ChEMBL document CHEMBL1132500, “Structure and antimalarial activity of adducts of 11-azaartemisinin with conjugated terminal acetylenes” (Bioorg Med Chem Lett, 1999):
In brackets after ≈: the same amount, converted by molar mass.

How the values were obtained:
Plasmodium falciparum [1] = assay: Antimalarial activity against Plasmodium falciparum W2 clone as relative IC50 to artemisinin; type: functional
Plasmodium falciparum [2] = assay: Antimalarial activity against Plasmodium falciparum D6 as IC50 relative to artemisinin; type: functional
Plasmodium falciparum [3] = assay: Inhibitory activity against Plasmodium falciparum W2; type: functional, organism-based
Plasmodium falciparum [4] = assay: Inhibitory activity against Plasmodium falciparum D6; type: functional, organism-based

| Structure (SMILES) | IC50 ratio (Plasmodium falciparum [1]) | IC50 ratio (Plasmodium falciparum [2]) | IC50 (Plasmodium falciparum [3]) [ng/mL] | IC50 (Plasmodium falciparum [4]) [ng/mL] |
| --- | --- | --- | --- | --- |
| COC(=O)/C=C/N1C(=O)[C@H](C)[C@@H]2CC[C@@H](C)[C@@H]3CC[C@]4(C)OO[C@]32[C@H]1O4 | 1.2 | 2 | – | – |
| CC(=O)/C=C/N1C(=O)[C@H](C)[C@@H]2CC[C@@H](C)[C@@H]3CC[C@]4(C)OO[C@]32[C@H]1O4 | 1.25 | 2.54 | – | – |
| C[C@@H]1CC[C@H]2[C@@H](C)C(=O)N(/C=C/C(=O)N(C)C)[C@@H]3O[C@]4(C)CC[C@@H]1[C@@]23OO4 | 0.35 | 0.39 | – | – |
| C[C@@H]1CC[C@H]2[C@@H](C)C(=O)O[C@@H]3O[C@@]4(C)CC[C@@H]1[C@]32OO4 [ARTEMISININ] | – | – | 1.15 (≈ 4.07 nM) | 4.19 (≈ 14.8 nM) |
